Read-outs that look alike come from different tables or passages of the source. Marks after values point to notes of the source that are not given here.
How the values were obtained:
[1] = system: hiPSC-derived neurons co-cultured with human primary astrocytes in 3D; assay: Ca2+ transient oscillation assay (FDSS), 3D spheroids; type: cell-based; conditions: 60 min
Text: (§1) In this study, we used cryopreserved excitatory neurons that were differentiated from human induced pluripotent stem cells (hiPSCs; Cat #: EX-SeV-CW50065) (Elixirgen Scientific, Inc., Baltimore, MD, USA). The hiPSCs used, namely, CW50065 were derived from a healthy person and distributed by the California Institute of Regenerative Medicine Human Induced Pluripotent Stem Cell Repository. Human iPSC-derived excitatory neurons were differentiated from CW50065 using a proprietary cocktail of differentiation-inducing factors called Quick-Neuron™ EX-SeV (Batch number: EX-SeV-CW50065-L; Elixirgen Scientific, Inc.), cryopreserved 3 days after differentiation induction and distributed. Human iPSC-derived excitatory neurons were recovered from cryopreservation and maintained essentially as instructed by the manufacturer.
(§2) Cryopreserved human primary astrocytes (#N7805100, Thermo Fisher Scientific, Waltham, MA, USA) were recovered as instructed by the manufacturer and seeded in a 10 cm dish at the density of 2,000,000 cells. The culture was maintained using the Human Astrocytes Kit (#N7805200, Thermo Fisher Scientific) for 12 days. Half of the culture medium was replaced with fresh medium every 2–3 days during the culture period. These astrocytes were harvested using StemPro™ Accutase™ Cell Dissociation Reagent (#A1110501, Thermo Fisher Scientific) when they reached confluency. These cells were cryopreserved in STEM-CELLBANKER® GMP grade (ZENOGEN PHARMA, Kohriyama, Fukushima Japan) at the density of 2,000,000 cells per vial as working stocks for co-culture with neurons in 2D and 3D conditions described below. After a working stock was recovered, astrocytes were directly mixed with hiPSC-derived neurons for plating without further expansion.
We used U-shaped-bottom 96-well plates (#174925, Thermo Fisher Scientific) without any prior coating to make a spheroid in each well. Neurons and astrocytes were seeded and maintained as described for 2D cultures, except for the following modifications. First, neurons and astrocytes were seeded in each well of the 96-well plates at the density of 8000 hiPSC neurons with 8000 human primary astrocytes (8000)/well (ratio 1:1). Second, when the differentiation of excitatory neurons was completed one week after seeding, cells were fed with BrainPhys^TM Neuronal Medium (#05793, […] Technologies, Vancouver, BC, Canada) supplemented with 2% SM1 Neuronal Supplement, 1% N2 Supplement-A, and 10% Neuron culture medium for 5 weeks.
Cells maintained as spheroids (3D) in the U-shaped-bottom 96-well plates were transferred into 384-well spheroid plates (#4516, Merck, Corning, NY, USA) with 25 µL of the culture medium. A Ca^2+-indicating dye solution including […] was prepared using the EarlyTox™ Cardiotoxicity Kit (#R8211, Molecular Devices, LLC, San Jose, CA, USA) according to the manufacturer. Then, the same volume of the dye solution was dispensed into each well.
(§3) Prior to the fluorescence measurements, all wells to be measured were treated with 0.04% dimethyl sulfoxide (DMSO) to stabilize the oscillation signal. The first recording started 10 min after the addition of DMSO for each plate for 20 min. The effects of the test compound were recorded again starting 60 min after the administration of compounds, for 20 min.
Twenty-five compounds (Table 1) were first dissolved in either DMSO (most compounds) or distilled water depending on the compound, and further diluted with PBS to produce stock solutions concentrated 10-fold. Then, 5 μL of each compound solution was injected into each well using an automatic pipetting robot (#4505, ASSIST PLUS pipetting robot, Integra Biosciences Corp., Hudson, NH, USA), so that the final concentration of each compound was 1-fold nominal in the well.

[2] = system: hiPSC-derived neurons co-cultured with human primary astrocytes in 2D; assay: Ca2+ transient oscillation assay (FDSS), 2D co-culture; type: cell-based; conditions: for activation at 1.11 µM / activation at 3.33 µM / activation at 10 µM / activation at 30 µM / activation at 0.11 µM / activation at 0.33 µM / activation at 1 µM / activation at 3 µM: Homo sapiens, 1 h, 60 min
Text: as §1, §2
Live neurons (hiPSC neurons) and human primary astrocytes were recovered from cryopreservation as described above and seeded in each well of 384-well plates at the density of 10,000 cells (HiPSC-cortical neurons) and human primary astrocytes at 2500 cells (ratio 4:1). These co-cultures were maintained under the medium conditions recommended by the manufacturer, namely Medium N(G2P), to complete the differentiation of excitatory neurons for the first week. […] Half of the culture medium was replaced with fresh medium every 3–4 days during the culture period.
After the incubation, the culture medium containing Cal-520 was replaced with 50 μL of HBSS supplemented with 0.1 mM MgCl2, 2 mM CaCl2, 10 mM HEPES, and 10 mM glucose and incubated at 37 ℃ for 15 min.
as §3
Twenty-five compounds (Table 1) were first dissolved in either DMSO (most compounds) or distilled water depending on the compound, and further diluted with PBS to produce stock solutions concentrated 10-fold. […] The final concentration of DMSO was adjusted to 0.1%. Changes in the fluorescence intensity (FI) produced by Ca^2+ flux were measured at 37 °C for all wells of a 384-well plate simultaneously using the FDSS/µCell system (#C13299, Hamamatsu Photonics, Hamamatsu, Shizuoka, Japan). The excitation and the emission wavelengths were 470 nm and 540 nm, respectively. The recording duration was 20 min with a sampling frequency of 2 Hz for cells cultured under 2D conditions and 10 Hz for cells cultured under 3D conditions.

[3] = read-out: Area under the curve - 2D Mean
[4] = read-out: Peak amplitude - 2D Mean
[5] = read-out: Peak-to-peak interval - 2D Mean

SMILES: OC(c1cc(C(F)(F)F)nc2c(C(F)(F)F)cccc12)C1CCCCN1 (stereo not drawn) [Mefloquine]
- Area under the curve - 3D Mean ([1]; 1.11 µM): 159.0 % change from baseline
- Peak Number—3D Mean ([1]; 1.11 µM): 2.8 % change from baseline
- Peak amplitude - 3D Mean ([1]; 1.11 µM): 149.7 % change from baseline
- Peak width - 3D Mean ([1]; 1.11 µM): 2.6 % change from baseline
- Peak-to-peak interval - 3D Mean ([1]; 1.11 µM): 7.1 % change from baseline
- Area under the curve - 3D Mean ([1]; 3.33 µM): 143.4 % change from baseline
- Peak Number—3D Mean ([1]; 3.33 µM): −11.1 % change from baseline
- Peak amplitude - 3D Mean ([1]; 3.33 µM): 139.0 % change from baseline
- Peak width - 3D Mean ([1]; 3.33 µM): 1.4 % change from baseline
- Peak-to-peak interval - 3D Mean ([1]; 3.33 µM): 1.7 % change from baseline
- Area under the curve - 3D Mean ([1]; 10 µM): 135.6 % change from baseline
- Peak Number—3D Mean ([1]; 10 µM): 7.2 % change from baseline
- Peak amplitude - 3D Mean ([1]; 10 µM): 135.0 % change from baseline
- Peak width - 3D Mean ([1]; 10 µM): −1.5 % change from baseline
- Peak-to-peak interval - 3D Mean ([1]; 10 µM): 12.8 % change from baseline
- Area under the curve - 3D Mean ([1]; 30 µM): 74.4 % change from baseline
- Peak Number—3D Mean ([1]; 30 µM): −3.7 % change from baseline
- Peak amplitude - 3D Mean ([1]; 30 µM): 99.9 % change from baseline
- Peak width - 3D Mean ([1]; 30 µM): −10.9 % change from baseline
- Peak-to-peak interval - 3D Mean ([1]; 30 µM): 8.3 % change from baseline
- effect on peak number / Ca2+ neuronal oscillations, in words ([2]; 2D format): significantly reduced peak number
- activation at 1.11 µM [2, 3]: 14.8%
- activation at 1.11 µM ([2]; read-out: Peak Number—2D Mean): -30.8%
- activation at 1.11 µM [2, 4]: 0.5%
- activation at 1.11 µM ([2]; read-out: Peak width - 2D Mean): 15.8%
- activation at 1.11 µM [2, 5]: 25%
- activation at 3.33 µM [2, 3]: -47.2%
- activation at 3.33 µM ([2]; read-out: Peak Number—2D Mean): 16.2%
- activation at 3.33 µM [2, 4]: -21.2%
- activation at 3.33 µM ([2]; read-out: Peak width - 2D Mean): -47%
- activation at 3.33 µM [2, 5]: 48.2%
- activation at 10 µM [2, 3]: -100%
- activation at 10 µM ([2]; read-out: Peak Number—2D Mean): -100%
- activation at 10 µM [2, 4]: -100%
- activation at 10 µM ([2]; read-out: Peak width - 2D Mean): -100%
- activation at 10 µM [2, 5]: -100%
- activation at 30 µM [2, 3]: -100%
- activation at 30 µM ([2]; read-out: Peak Number—2D Mean): -100%
- activation at 30 µM [2, 4]: -100%
- activation at 30 µM ([2]; read-out: Peak width - 2D Mean): -100%
- activation at 30 µM [2, 5]: -100%

SMILES: C[C@]12N[C@H](Cc3ccccc31)c1ccccc12 [MK-801, Dizocilpine]
- Area under the curve - 3D Mean ([1]; 0.11 µM): 127.3 % change from baseline
- Peak Number—3D Mean ([1]; 0.11 µM): −49.1 * % change from baseline
- Peak amplitude - 3D Mean ([1]; 0.11 µM): 104.7 % change from baseline
- Peak width - 3D Mean ([1]; 0.11 µM): 8.0 % change from baseline
- Peak-to-peak interval - 3D Mean ([1]; 0.11 µM): 76.1 % change from baseline
- Area under the curve - 3D Mean ([1]; 0.33 µM): 66.6 % change from baseline
- Peak Number—3D Mean ([1]; 0.33 µM): −67.3 ** % change from baseline
- Peak amplitude - 3D Mean ([1]; 0.33 µM): 76.2 % change from baseline
- Peak width - 3D Mean ([1]; 0.33 µM): −29.3 % change from baseline
- Peak-to-peak interval - 3D Mean ([1]; 0.33 µM): 66.4 % change from baseline
- Area under the curve - 3D Mean ([1]; 1 µM): -66.9 % change from baseline
- Peak Number—3D Mean ([1]; 1 µM): −97.2 ** % change from baseline
- Peak amplitude - 3D Mean ([1]; 1 µM): −64.1 % change from baseline
- Peak width - 3D Mean ([1]; 1 µM): −85.8 % change from baseline
- Peak-to-peak interval - 3D Mean ([1]; 1 µM): −100.0 % change from baseline
- Area under the curve - 3D Mean ([1]; 3 µM): 41.0 % change from baseline
- Peak Number—3D Mean ([1]; 3 µM): −84.8 ** % change from baseline
- Peak amplitude - 3D Mean ([1]; 3 µM): 67.2 % change from baseline
- Peak width - 3D Mean ([1]; 3 µM): −36.8 % change from baseline
- Peak-to-peak interval - 3D Mean ([1]; 3 µM): −100.0 % change from baseline
- activation at 0.11 µM [2, 3]: -35.7%
- activation at 0.11 µM ([2]; read-out: Peak Number—2D Mean): -82.8%
- activation at 0.11 µM [2, 4]: -41.8%
- activation at 0.11 µM ([2]; read-out: Peak width - 2D Mean): -3.2%
- activation at 0.11 µM [2, 5]: 204%
- activation at 0.33 µM [2, 3]: -57%
- activation at 0.33 µM ([2]; read-out: Peak Number—2D Mean): -90.4%
- activation at 0.33 µM [2, 4]: -63.6%
- activation at 0.33 µM ([2]; read-out: Peak width - 2D Mean): -23.6%
- activation at 0.33 µM [2, 5]: 3.6%
- activation at 1 µM [2, 3]: -57.4%
- activation at 1 µM ([2]; read-out: Peak Number—2D Mean): -84.6%
- activation at 1 µM [2, 4]: -58.6%
- activation at 1 µM ([2]; read-out: Peak width - 2D Mean): -32.8%
- activation at 1 µM [2, 5]: -57.4%
- activation at 3 µM [2, 3]: -79.8%
- activation at 3 µM ([2]; read-out: Peak Number—2D Mean): -96.3%
- activation at 3 µM [2, 4]: -79.7%
- activation at 3 µM ([2]; read-out: Peak width - 2D Mean): -70%
- activation at 3 µM [2, 5]: -100%

Source: PMC10046961, “High-Throughput Screening Assay for Detecting Drug-Induced Changes in Synchronized Neuronal Oscillations and Potential Seizure Risk Based on Ca^2+ Fluorescence Measurements in Human Induced Pluripotent Stem Cell (hiPSC)-Derived Neuronal 2D and 3D Cultures” (Cells, 2023)
